From ChEMBL document CHEMBL3351878, “Carbonic Anhydrase Inhibition with Benzenesulfonamides and Tetrafluorobenzenesulfonamides Obtained via Click Chemistry” (ACS Med Chem Lett, 2014) come the findings set out here.

One assay addresses Carbonic anhydrase 9 (Homo sapiens, UniProt Q16790).
Another assay addresses Carbonic anhydrase 1 (Homo sapiens, UniProt P00915). Description: Inhibition of recombinant human carbonic anhydrase 1 preincubated for 15 mins by stopped-flow CO2 hydrase Assay.
The next assay addresses Carbonic anhydrase 12 (Homo sapiens, UniProt O43570).

Sequence of Carbonic anhydrase 1 (P00915 whole entry): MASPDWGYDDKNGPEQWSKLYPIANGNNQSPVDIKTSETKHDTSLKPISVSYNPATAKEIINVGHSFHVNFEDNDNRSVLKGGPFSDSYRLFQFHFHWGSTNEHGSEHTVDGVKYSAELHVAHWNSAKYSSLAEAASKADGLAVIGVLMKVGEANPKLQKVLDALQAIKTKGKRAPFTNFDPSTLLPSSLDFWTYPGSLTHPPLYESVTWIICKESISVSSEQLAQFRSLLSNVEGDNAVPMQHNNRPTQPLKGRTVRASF
Sequence of Carbonic anhydrase 12 (O43570 whole entry): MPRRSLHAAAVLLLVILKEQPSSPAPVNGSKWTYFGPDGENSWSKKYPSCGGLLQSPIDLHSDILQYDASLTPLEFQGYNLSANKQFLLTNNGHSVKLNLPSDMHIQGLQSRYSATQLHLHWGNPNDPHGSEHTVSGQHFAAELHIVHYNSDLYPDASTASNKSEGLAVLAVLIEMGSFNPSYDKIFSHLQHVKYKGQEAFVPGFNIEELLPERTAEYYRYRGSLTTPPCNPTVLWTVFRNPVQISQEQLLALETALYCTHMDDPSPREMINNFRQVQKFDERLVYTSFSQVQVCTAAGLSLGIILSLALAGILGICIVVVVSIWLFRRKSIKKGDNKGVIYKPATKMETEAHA

In the case of `CCCCCc1ccc(-c2cn(-c3ccc(S(N)(=O)=O)cc3)nn2)cc1`, the Ki on Carbonic anhydrase 9 amounted to 5 nM.

In the case of `NS(=O)(=O)c1ccc(-n2cc(CCBr)nn2)cc1`, the Ki on Carbonic anhydrase 9 stood at 6.9 nM.

In turn, `NS(=O)(=O)c1ccc(-n2cc(CCCCl)nn2)cc1` had a Ki on Carbonic anhydrase 9 of 6.2 nM.

`NS(=O)(=O)c1ccc(-n2cc(CCCCCl)nn2)cc1` came in with a Ki at Carbonic anhydrase 9 of 5.4 nM.

Regarding `CC(C)(C)OC(=O)NCc1cn(-c2ccc(S(N)(=O)=O)cc2)nn1`, affinity at Carbonic anhydrase 9 was put at a Ki of 10.5 nM.

For `NCc1cn(-c2ccc(S(N)(=O)=O)cc2)nn1`, the inhibition constant Ki on Carbonic anhydrase 9 is 12.1 nM.

Turning to `CCCCCc1ccc(-c2cn(-c3c(F)c(F)c(S(N)(=O)=O)c(F)c3F)nn2)cc1`, on Carbonic anhydrase 9, the inhibition constant Ki is 38.9 nM.

On to `NS(=O)(=O)c1c(F)c(F)c(-n2cc(CCCCCl)nn2)c(F)c1F`, for which the affinity at Carbonic anhydrase 9, expressed as Ki, was 4.5 nM.

In the case of `Cc1ccc(-c2cn(-c3ccc(S(N)(=O)=O)cc3)nn2)cc1`, the Ki worked out at 368 nM at Carbonic anhydrase 1 and 3.6 nM on Carbonic anhydrase 12.

For the compound `NS(=O)(=O)c1ccc(-n2cc(-c3ccccc3)nn2)cc1`, the inhibition constant (Ki) on Carbonic anhydrase 1 stood at 392 nM; on Carbonic anhydrase 9, 25.9 nM; at Carbonic anhydrase 12, 6 nM.
